Literature values in patent US7179939B2, “Sodium ferric gluconate complexes and method of manufacture thereof” (priority 2004, dated 2007).

sodium ferric gluconate complex in sucrose
reactions associated with administration (severity) (occur at a lower rate compared to iron dextran): mild to moderate
occurrence of allergic episodes (study comparing iron dextran with sodium ferric gluconate): 3.3 allergic episodes per million doses
